This is an account of results in patent US9023408B2, “Composition and method for control of diabetes” (Meyer Nutriceuticals LLC, priority 2009, dated 2015).

One data set has as its system GLP-1. The data set is described as follows: Placebo-controlled double-blinded study in type 2 diabetes: plasma GLP-1. The following applies: in vivo. Further details: species or system human. The method, then:
FIGS. 6 and 7 depict the effect of CTM #3 versus placebo on blood glucose in a randomized, placebo-controlled, double-blinded study in 10 subjects with mild to moderate type 2 diabetes. After an overnight fast, subjects ingested 10 g of placebo pellets or CTM #3 pellets with the same standard breakfast as above (415 kcal; 71 g of carbohydrate) followed by a standard lunch at 240 min (708 kcal; 89 g of carbohydrate). […] The higher calorie lunch raised GLP-1s more than the breakfast on placebo days; and the CTM raised the post lunch GLP-1s even more. […] Using a similar calculation as used above for PYY, the per-calorie effectiveness of the lauric acid in CTM #3 in boosting the GLP-1 response to the meal was 77 times that of the calories in the breakfast.
For comparisons, the APAP levels have been scaled up so that their value equaled that of the GLP-1 peak at 270 min. […] The diabetic subjects were older than the normal subjects, and four of them had mild vagal neuropathy which might have contributed to slower gastric emptying. […]
The GLP-1 values (vertical axis) following the CTM treatment are expressed as a percent of the corresponding value at each time point following the placebo treatment, so that any value above the horizontal 100% line represents the effect of lauric acid released from the CTM #3. […]

A short description of data set [1]: U.S.P. in vitro dissolution test (rotating basket). The note with it: uncoated cores of CTM #3.
The conditions of data set [2]: human, in vivo. How it is done: An additional gram of pellets was added to the dose; and the additional pellets had been surface-labeled with 99m-Tc-polymethylmethacrylate (these additional pellets could not release their contents), so that the positions of the pellets with time could be followed with a gamma camera. The releasing pellets also contained 5% (w/w) APAP which is rapidly and completely absorbed from small or large bowel, even in the presence of food. The APAP served as a pharmacokinetic marker. Subjects ate a free-choice meal at 241 min. Finally, PYY levels (see FIG. 4b) were followed on CTM and also on control days when four of the eight subjects shown in FIG. 4a consumed the standard breakfast at t=0 and a free choice lunch at t=241 min, but no pellets of CTM #3. Because lauric acid released from CTM #3 cannot be distinguished in plasma from dietary and endogenous lauric acid, assays of plasma PYY served as a surrogate for the release of bioactive lauric acid, which is known to be a potent stimulus of secretion of PYY and GLP-1 from L cells. To compare the time-courses of basal subtracted PYY measurements with those of APAP, analytical values for APAP were scaled up so that they equaled the peak PYY at 300 min.
From 240-300 minutes, the pellets began to empty from the ileum, so that by 300 min, there were few pellets in the small bowel, and the majority of pellets was now in the colon. […]

With `CCCCCCCCCCCC(=O)O` [lauric acid], the “per calorie potency relative to dietary nutrients in releasing GLP-1 and PYY” value with GLP-1 is 77-150 times. Further, the “solubility in simulated bile (bile salts and lecithin) at pH 6.2” value in data set [1] (pH 6.2) is given as “only half as soluble as maltose”. In addition, the “solubility compared with maltose, bile-free medium” value in data set [1] (pH 6.2 1 h then pH 7.2 3 h) was “much less soluble than maltose”. For the same compound, in data set [1] (pH 7.2), the “solubility in simulated bile (bile salts and lecithin) at pH 7.2” value is on record as “as soluble as maltose or APAP”. Further, the “duration of slow release from the dosage form after ingestion” value in data set [2] was 330 to 360 min.
